The target in data set [1] is type 2 vesicular transporter (VMAT2) (Homo sapiens, UniProt Q05940). As to conditions: cited from earlier work.
The conditions of data set [2]: dogs, previous studies; cited from earlier work.
The conditions of data set [3]: primate models; cited from earlier work.
Data set [4] relates to isolated ob/ob mouse islets. Put plainly: Uptake of ^52Mn^2+ in isolated islets under stimulatory or inhibitory conditions. Type of data set: cell-based. As to conditions: low glucose (1 mM), 370 kBq ^52Mn^2+. As for the experimental part:
Mouse pancreatic islets were isolated by collagenase digestion. Briefly, mice were placed under shallow anesthesia and sacrificed via cervical dislocation. The mouse common bile duct was cannulized and 3-5 mL of an ice-cold solution containing type XI collagenase (0.5 mg/mL; Sigma Aldrich, St. Louis, Mo.) and bovine serum albumin (BSA; 0.2 mg/mL; Sigma Aldrich, St. Louis, Mo.) in Hank's balanced salt solution (HBSS; Invitrogen, Carlsbad, Calif.) was injected into the mouse pancreas. After inflation, the pancreas was removed, placed in a glass vial containing 5 mL of the collagenase solution, and incubated in a shaking water bath at 37° C. Samples were digested for approximately 30 min after which the digests were centrifuged at 50×g for 2 min and islet pellets were washed three times with 30 mL of an ice-cold BSA (0.2 mg/mL) in HBSS solution. The pellet was resuspended and islets handpicked into 35 mm petri dishes. Following isolation, islets were placed in RPMI1640 media supplemented with penicillin (100 U/mL; Invitrogen), streptomycin (100 μg/mL; Invitrogen), and FBS [10% (wt/vol); Sigma] and incubated overnight at 37° C. in a 5% CO2 atmosphere.
The uptake of ^52Mn^2+ by murine islets of Langerhans was determined under several stimulatory or inhibitory conditions. Batches of 50 islets were transferred into 0.45 μm filtered bottom 1 mL centrifuge vials (Thermo Fisher Scientific, Grand Island, N.Y.), 500 μL of Krebs-Ringer buffer (KRB: 118 mM NaCl, 5.4 mM KCl, 2.4 mM CaCl, 1.2 mM MgSO4, 1 mM […], 20 mM HEPES; pH 7.4) containing a low glucose concentration (1 mM D-glucose) were added and the islets incubated for 30 min at 37° C. After removing the supernatant following centrifugation at 50×g for 5 min, 250 μL of KRB containing glucose, diazoxide (50 μM; Tocris Biosciences, Bristol, UK), or tolbutamide (250 μM; Selleckchem, Houston, Tex.) were added, and the vials were spiked with 370 kBq (10 μCi) of ^52Mn^2+. After 15 min of incubation, the solutions were filtered and islets were washed three times with KRB. The ^52Mn^2+ radioactivity in the islet pellets were measured in an automated gamma counter (Perkin Elmer).

Data set [5] in a line: Static PET imaging of ^52Mn^2+ biodistribution in normal mice. Type of data set: in vivo, ICR mice. The procedure:
The acquisition of PET images was performed in the Inveon μPET/μCT scanner (Siemens Preclinical Solutions, Knoxville, Tenn.). To study the long-term biodistribution and clearance of ^52Mn^2+ in the mouse body, approximately 3.7 MBq (100 μCi) of ^52Mn^2+ was injected intravenously (IV) in female ICR mice. […] Before each scan, mice were anesthetized with isoflurane (4% induction; 1% maintenance) and placed in the scanner in prone position. 30×10^6-40×10^6 coincidence events per mouse static PET scans were acquired (time window, 3.432 ns; energy window, 350-650 keV) and the PET images were reconstructed in Inveon Acquisition Workplace (Siemens Preclinical Solutions, Knoxville, Tenn.) workstation using a non-scatter-corrected three-dimensional Ordered Subset Expectation […]/Maximum a Posteriori (OSEM3D/MAP) algorithm. Region-of-interest (ROI) analysis was performed after organs were manually delineated on the PET images. Tissue uptake values were reported as standardized uptake value (SUV), which is normalized to whole body radiomanganese concentration.

Data set [6] in a line: Dynamic PET of ^52Mn^2+ (rapid IV bolus or 30 min IV infusion) under isoflurane. The data set is classed as in vivo, mice. The procedure: To acquire dynamic PET scans, mice were anesthetized with isoflurane and the lateral tail vein was catheterized. Simultaneous with the administration of approximately 1.7 MBq (50 μCi) of ^52Mn^2+ as a fast IV bolus, one-hour scans were recorded and list-mode files were binned into 46 frames (12×5 s, 6×10 s, 6×30 s, 10×60 s, 6×150 s, 6×300 s) and the images reconstructed using a non-scatter-corrected OSEM3D/MAP algorithm. In another study, 1.7 MBq (50 μCi) of ^52Mn^2 was continuously infused with a syringe pump (Kd Scientific, Model 780100) over a period of 30 min, starting at the beginning of the PET scan. List-mode files were framed into 30×2 min frames and reconstructed using the above-mentioned algorithm.

Data set [7] in a line: Ex vivo ^52Mn^2+ biodistribution by gamma counting after last PET scan. As to conditions: ICR mice, ex vivo gamma counting 13 days after injection. Type of data set: in vivo. The procedure:
Ex vivo biodistribution studies were performed in all groups of mice in order to validate the results of PET imaging and obtain a more complete biodistribution profile of ^52Mn^2+. Following the last imaging time point, mice were euthanized by C02 asphyxiation and the organs of interest were removed, wet-weighed, and counted on an automated gamma-counter (Wizard 2480, Perkin Elmer). The tissue uptake of ^52Mn^2+ was reported as SUV (mean±SD).

Data set [8] in a line: ^52Mn^2+ PET and biodistribution in STZ type-1 diabetes model. Type of data set: in vivo, ICR mice. The procedure: Type 1 diabetes was induced in female ICR mice via a single IP injection of 180 mg/kg streptozotocin (STZ; MP Biomedical, LLC, Santa Ana, Calif.), a toxin that selectively destroys pancreatic beta cell. The injectable STZ solution (12.5 mg/mL) was prepared freshly in phosphate buffered saline (PBS). The weight of each mouse was measured daily, and blood glucose levels were recorded every other day with a glucometer (TRUEresult, Trividia Health Inc., Fort Lauderdale, Fla.) using blood samples collected from the tail vein. Mice were considered diabetic after two consecutive blood glucose readings above 250 mg/dL and were used for PET imaging studies one week after the injection of STZ. To evaluate ^52Mn^2+ pancreatic uptake on diabetic mice, 0.74 MBq (20 μCi) of activity were administered IV and static PET images recorded one hour after administration of the tracer. Ex vivo biodistribution was carried out following PET acquisition.

Data set [9] can be described thus: Static PET imaging of ^52Mn^2+ biodistribution in normal mice. Type of data set: in vivo, ICR mice. To be noted: healthy mice, IV, peaked within minutes following administration.
Data set [10] in a line: ^52Mn^2+ PET in pre-type 2 diabetic ob/ob and lean C57BL/6J mice. Type of data set: in vivo. The text has this:
Given the altered glucose metabolism in obese mice, we compared the pancreatic uptake of ^52Mn^2+ in lean (wild-type) and obese (ob/ob) mice on the C57BL/6J background. For PET imaging, 0.74 MBq (20 μCi) of ^52Mn^2+ was IV injected into obese mice or lean controls one hour prior to PET scan acquisition. Subsequent ^52Mn^2+ accumulation in the pancreas and other organs of interest was quantified.

Where [11] appears, read: ICR mice, IV ^52Mn^2+, awake at injection, static PET 1 h post injection.
Where [12] appears, read: rapid IV bolus, isoflurane throughout, 1 h post injection.

Several values for one entry are separate records, joined by “and”; a condition that tells them apart may be missing. Equal entries are not always repeated. Where only a bound is given, the exact number is not on record here.

Chain of type 2 vesicular transporter (VMAT2) (Q05940 whole entry, species assumed): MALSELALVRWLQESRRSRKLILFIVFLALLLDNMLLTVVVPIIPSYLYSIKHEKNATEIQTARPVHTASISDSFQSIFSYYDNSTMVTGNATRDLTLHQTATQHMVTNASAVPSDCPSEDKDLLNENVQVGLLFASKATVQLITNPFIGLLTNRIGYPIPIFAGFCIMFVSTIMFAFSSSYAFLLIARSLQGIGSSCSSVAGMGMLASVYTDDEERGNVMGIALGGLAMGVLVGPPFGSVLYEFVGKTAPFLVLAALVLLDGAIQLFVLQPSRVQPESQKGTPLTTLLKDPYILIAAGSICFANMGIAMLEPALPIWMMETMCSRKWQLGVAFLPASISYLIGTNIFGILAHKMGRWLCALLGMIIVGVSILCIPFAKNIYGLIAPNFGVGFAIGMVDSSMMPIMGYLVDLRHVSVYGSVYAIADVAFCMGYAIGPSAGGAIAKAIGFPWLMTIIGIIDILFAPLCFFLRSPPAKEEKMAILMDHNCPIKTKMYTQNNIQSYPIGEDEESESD

With `COc1cc2c(cc1OCCCF)CCN1CC(CC(C)C)C(O)CC21` (stereo not drawn) [FP-(+)-DTBZ], the “affinity for VMAT2” value in data set [1] was “high affinity”.

As for `[54Mn]` [Mn-54], the blood clearance in [2] is listed as approximately 0.8 min.

In the case of `COc1cc2c(cc1O[11CH3])CCN1CC(CC(C)C)C(O)CC21` (stereo not drawn) [[^11C]-DTBZ, [^11C]-Dihydrotetrabenazine], in data set [3], the pancreatic uptake result is given as “very low”.

`[52Mn+2]` [^52Mn^2+]: the “^52Mn^2+ uptake by islets under resting conditions” value in data set [4] was “readily taken up”. For the same compound, in data set [5] (setting [11]), the “^52Mn^2+ uptake in heart (PET ROI)” value is listed as 2.11±0.20 SUV; the “^52Mn^2+ uptake in kidneys (PET ROI)” value is listed as 5.13±0.02 SUV; the “^52Mn^2+ uptake in liver (PET ROI)” value is 3.27±0.36 SUV and 3.27±0.34 SUV; the “^52Mn^2+ uptake in muscle (PET ROI)” value is on record as 0.38±0.03 SUV. Further, in data set [5] (setting [11]), the “^52Mn^2+ uptake in pancreas (PET ROI)” value was 5.13±0.38 SUV and 5.13±0.36 SUV; the “^52Mn^2+ uptake in salivary glands (PET ROI)” value was found to be 2.30±0.26 SUV. In addition, in data set [5] (ICR mice, longitudinal PET after 1 h up to 13 days post injection), the “^52Mn^2+ uptake in salivary gland at subsequent time points” value is recorded as “around 3 SUV”. Also, the “pancreas clearance half-life of ^52Mn^2+” value in data set [5] (healthy mice, IV) was “approximately 8 days”. Also, in [6] (IV infusion over 30 min, isoflurane), the “^52Mn^2+ uptake in pancreas, continuous infusion” value is listed as 3.44±0.69 SUV. Besides, the “^52Mn^2+ uptake in kidney, continuous infusion” value in data set [6] (IV infusion over 30 min, isoflurane, 1 h post injection) is 5.14±1.21 SUV. In addition, the “reduction in pancreatic uptake, dynamic vs static PET” value in data set [6] (rapid IV bolus under isoflurane vs awake injection, 1 h post injection) is listed as approximately 50%. In addition, in data set [6] (rapid IV bolus, dynamic PET), the “time until uptake stabilized in organs of interest” value was “within five minutes”. In addition, in data set [6] (rapid IV bolus, from myocardial TAC of dynamic PET), the blood circulation half-life was determined as 10.7 ± 3.5 s. Also, in [6] (setting [12]), the “^52Mn^2+ uptake in heart, dynamic PET” value is given as 2.60±0.41 SUV; the “^52Mn^2+ uptake in kidneys, dynamic PET” value turned out to be 7.81±0.51 SUV; the “^52Mn^2+ uptake in liver, dynamic PET” value worked out at 5.16±1.46 SUV; the “^52Mn^2+ uptake in muscle, dynamic PET” value came out at 0.16±0.02 SUV. Also, in data set [6] (setting [12]), the “^52Mn^2+ uptake in pancreas, dynamic PET” value is 2.74±0.59 SUV. Moreover, the “^52Mn^2+ uptake in other organs (brain, lungs, bones, intestines, stomach, spleen)” value in [7] is “less than 0.5 SUV”. Further, in [8] (STZ (180 mg/kg) diabetic ICR mice, 1 h post injection, normal mice 5.13±0.38 SUV), the “^52Mn^2+ uptake in pancreas of diabetic mice (PET ROI)” value is 2.04±0.81 SUV. For the same compound, the “decrease in pancreatic accumulation of ^52Mn^2+, ex vivo biodistribution” value in [8] (STZ-diabetic vs normal ICR mice) is on record as more than 58%. For the same compound, in [8] (STZ-induced type-1 diabetes model vs normal), the “reduction in the pancreatic accumulation of ^52Mn^2+” value is approximately 60%. The “^52Mn^2+ uptake in the pancreas at peak” value in [9] is reported as 5-6 SUV. In data set [10] (lean C57BL/6J, 1 h), the “^52Mn^2+ uptake in liver, lean mice” value came to 3.40±0.73 SUV and the “^52Mn^2+ uptake in salivary gland, lean mice” value is 3.11±1.05 SUV. Moreover, the “^52Mn^2+ pancreatic uptake, lean mice” value in data set [10] (lean C57BL/6J, PET 1 h after administration) stood at 4.89±0.68 SUV. In [10] (ob/ob C57BL/6J, 1 h), the “^52Mn^2+ uptake in liver, obese mice” value turned out to be 3.68±0.25 SUV and the “^52Mn^2+ uptake in salivary gland, obese mice” value is listed as 2.40±0.20 SUV. Besides, in data set [10] (pre-type 2 diabetic ob/ob C57BL/6J, PET 1 h after administration), the “^52Mn^2+ pancreatic uptake, ob/ob mice” value was 7.27±1.03 SUV.

The record behind these values is patent US20180271470A1, “METHODS FOR QUANTIFYING PANCREATIC BETA CELL FUNCTION AND MASS PROPERTIES WITH RADIOMANGANESE POSITRON EMISSION TOMOGRAPHY” (Wisconsin Alumni Research Foundation, priority 2017, published 2018).
